Literature values as cited in PMC9199201, “Biomimetic and temporal-controlled nanocarriers with ileum transporter targeting for achieving oral administration of chemotherapeutic drugs” (Journal of Nanobiotechnology, 2022).

Parameters: method as in PMID 23220325

- Oral bioavailability: less than 1%
Structure (SMILES): CC(=O)O[C@H]1C(=O)[C@@]2(C)[C@H]([C@H](OC(=O)c3ccccc3)[C@]3(O)C[C@H](OC(=O)[C@H](O)[C@@H](NC(=O)c4ccccc4)c4ccccc4)C(C)=C1C3(C)C)[C@]1(OC(C)=O)CO[C@@H]1C[C@@H]2O [PTX, paclitaxel]
